Measurements reported in patent US20260053812A1, “METHODS OF TREATING HYPERTENSION WITH A COMBINATION OF AN ALDOSTERONE SYNTHASE INHIBITOR AND A DIURETIC” (Mineralys Therapeutics, Inc., priority 2022, published 2026).
Values joined by “and” are separate entries in the source; they are usually repeats but may differ in a detail not shown here. Equal entries are not always repeated.

Assay: Adverse events (TEAEs, SAEs, AESI; Safety Analysis Set)
[1] = Table 43, Part 1, 100 mg QD (N = 31)

SMILES: CC(=O)N[C@H]1CC[C@H](NC(=O)CN2CCN(c3nncc(-c4ccc(C)cc4)n3)CC2)CC1 [Compound A HBr]
- TEAE leading to permanent discontinuation from study drug, Vascular disorders, % (Part 1, Active (N = 133)): (2.3) %
- Subjects with TEAEs considered at least possibly related to study drug (Part 1, active drug, listed as lorundrostat): 27 (20.3%) subjects (%)
- AE requiring dose titration: Hyperkalemia (Part 1 All active, N 159): 6 (3.8%)
- AE requiring dose titration: Hyponatremia (Part 1 All active, N 159): 0
- AE requiring dose titration: Other possibly related (Part 1 All active, N 159): 0
- AE requiring dose titration: Other unrelated (Part 1 All active, N 159): 1 (0.6%)
- AE requiring study drug discontinuation: Hyperkalemia (Part 1 All active, N 159): 6 (3.8%)
- AE requiring study drug discontinuation: Hyponatremia (Part 1 All active, N 159): 0
- AE requiring study drug discontinuation: Hypotension (Part 1 All active, N 159): 2 (1.2%)
- AE requiring study drug discontinuation: Other possibly related (Part 1 All active, N 159): 1 (0.6%)
- AE requiring study drug discontinuation: Other unrelated (Part 1 All active, N 159): 11 (6.9%)
- Deaths (Part 1 or Part 2): No deaths
- Subjects with TEAE resulting in dose modification (Part 2): 7 subjects
- Muscle spasms (Part 2 100 mg QD cohort): 3 (9.7%) subjects (%)
- Subjects with ≥1 moderate on-treatment TEAE (Part 2 100 mg QD cohort): 12 (38.7%) subjects (%)
- AE requiring dose titration: Hyperkalemia (Part 2 100 mg QD, N 31): 1 (3.2%)
- AE requiring dose titration: Hyponatremia (Part 2 100 mg QD, N 31): 1 (3.2%)
- AE requiring dose titration: Other possibly related (Part 2 100 mg QD, N 31): 0
- AE requiring dose titration: Other unrelated (Part 2 100 mg QD, N 31): 0
- AE requiring study drug discontinuation: Hyperkalemia (Part 2 100 mg QD, N 31): 0
- AE requiring study drug discontinuation: Hyponatremia (Part 2 100 mg QD, N 31): 1 (3.4%)
- AE requiring study drug discontinuation: Hypotension (Part 2 100 mg QD, N 31): 1 (2.8%)
- AE requiring study drug discontinuation: Other possibly related (Part 2 100 mg QD, N 31): 0
- AE requiring study drug discontinuation: Other unrelated (Part 2 100 mg QD, N 31): 1 (2.8%)
- Subjects with any On-treatment TEAEs leading to withdrawal from study drug, % (Part 2, 100 mg QD (N = 31)): 6.5%
- TEAE leading to permanent withdrawal from study drug, Glomerular filtration rate decreased, % (Part 2, 100 mg QD (N = 31)): 3.2%
- TEAE leading to permanent withdrawal from study drug, Hyponatraemia, % (Part 2, 100 mg QD (N = 31)): 3.2%
- TEAE leading to permanent withdrawal from study drug, Investigations, % (Part 2, 100 mg QD (N = 31)): 3.2%
- TEAE leading to permanent withdrawal from study drug, Metabolism and nutrition disorders, % (Part 2, 100 mg QD (N = 31)): 3.2%
- TEAE leading to permanent withdrawal from study drug, Muscle spasms, % (Part 2, 100 mg QD (N = 31)): 3.2%
- TEAE leading to permanent withdrawal from study drug, Musculoskeletal and connective tissue disorders, % (Part 2, 100 mg QD (N = 31)): 3.2%
- Subjects with TEAEs considered at least possibly related to study drug (Part 2, lorundrostat): 9 subjects (%) and 9 (29.0%) subjects (%)
- On-treatment TEAE, Chronic kidney disease, % [1]: (6.5) %
- On-treatment TEAE, Chronic kidney disease, Mild, % [1]: (6.5) %
- On-treatment TEAE, Diarrhoea, % [1]: (6.5) %
- On-treatment TEAE, Diarrhoea, Mild, % [1]: (6.5) %
- On-treatment TEAE, Dizziness, % [1]: (6.5) %
- On-treatment TEAE, Dizziness, Mild, % [1]: (6.5) %
- On-treatment TEAE, Gastrointestinal disorders, % [1]: (16.1) %
- On-treatment TEAE, Gastrointestinal disorders, Mild, % [1]: (9.7) %
- On-treatment TEAE, Gastrointestinal disorders, Moderate, % [1]: (6.5) %
- On-treatment TEAE, Hyperkalaemia, % [1]: (25.8) %
- On-treatment TEAE, Hyperkalaemia, Mild, % [1]: (9.7) %
- On-treatment TEAE, Hyperkalaemia, Moderate, % [1]: (16.1) %
- On-treatment TEAE, Hyponatraemia, % [1]: (6.5) %
- On-treatment TEAE, Infections and infestations, % [1]: (16.1) %
- On-treatment TEAE, Infections and infestations, Mild, % [1]: (6.5) %
- On-treatment TEAE, Infections and infestations, Moderate, % [1]: (9.7) %
- On-treatment TEAE, Investigations, % [1]: (6.5) %
- On-treatment TEAE, Metabolism and nutrition disorders, % [1]: (32.3) %
- On-treatment TEAE, Metabolism and nutrition disorders, Mild, % [1]: (6.5) %
- On-treatment TEAE, Metabolism and nutrition disorders, Moderate, % [1]: (22.6) %
- On-treatment TEAE, Muscle spasms, % [1]: (9.7) %
- On-treatment TEAE, Muscle spasms, Moderate, % [1]: (6.5) %
- On-treatment TEAE, Musculoskeletal and connective tissue disorders, % [1]: (16.1) %
- On-treatment TEAE, Musculoskeletal and connective tissue disorders, Mild, % [1]: (6.5) %
- On-treatment TEAE, Musculoskeletal and connective tissue disorders, Moderate, % [1]: (9.7) %
- On-treatment TEAE, Nausea, % [1]: (6.5) %
- On-treatment TEAE, Nausea, Mild, % [1]: (6.5) %
- On-treatment TEAE, Nervous system disorders, % [1]: (6.5) %
- On-treatment TEAE, Nervous system disorders, Mild, % [1]: (6.5) %
- On-treatment TEAE, Renal and urinary disorders, % [1]: (6.5) %
- On-treatment TEAE, Renal and urinary disorders, Mild, % [1]: (6.5) %
- On-treatment TEAE, Urinary tract infection, % [1]: (6.5) %
- Subjects with any On-treatment TEAEs, Mild, % [1]: (19.4) %
- Subjects with any On-treatment TEAEs, Moderate, % [1]: (38.7) %
- Subjects with any On-treatment TEAEs, Severe, % [1]: (3.2) %
- AE requiring dose titration: Hyperkalemia (Total active, N 190): 7 (4.1%)
- AE requiring dose titration: Hyponatremia (Total active, N 190): 1 (0.5%)
- AE requiring dose titration: Other possibly related (Total active, N 190): 0
- AE requiring dose titration: Other unrelated (Total active, N 190): 1 (0.5%)
- AE requiring study drug discontinuation: Hyperkalemia (Total active, N 190): 6 (3.2%)
- AE requiring study drug discontinuation: Hyponatremia (Total active, N 190): 1 (0.5%)
- AE requiring study drug discontinuation: Hypotension (Total active, N 190): 3 (1.6%)
- AE requiring study drug discontinuation: Other possibly related (Total active, N 190): 1 (0.5%)
- AE requiring study drug discontinuation: Other unrelated (Total active, N 190): 12 (6.3%)
- Subjects who developed orthostatic hypotension (fall of 20 mmHg in SBP or 10 mmHg in DBP sitting to standing): three
- Subjects with hypotension related to treatment (two in 100 mg QD cohorts (Part 1, Part 2), one 12.5 mg BID, reversible with treatment cessation): three
- Overall safety and tolerability (whole study): safe and well tolerated
